Columns and labels:
[1] = system: CL145A (ATCC 55799); assay: Antibiotic resistance profile (antibiotic discs on Mueller-Hinton Agar); conditions: for Suppresses growth of CL145A: 25° C., 72 hours; for CL145A resistant or sensitive to the antibiotic: antibiotic disc, 72 hours incubation
Description: One glycerol stock vial of CL145A was equally distributed onto Mueller-Hinton Agar plates (100 μl per plate) and spread on the plate using a sterile cell spreader. Antibiotic discs were then placed onto the plates along with a blank sterile disc. Plates were incubated at 25° C. in the dark for 72 hours.

[2] = system: mussels; assay: Mussel bioassay in scintillation vials; type: in vivo
Description: Mussel bioassays were performed in twenty milliliter scintillation vials. Ten small mussels (approximately 1 cm long) were incubated in the mussel water (10 mL) for 24 hr first, then the mussel water (10 mL) was changed freshly before test cell lysis was added. Cell lysis or proteins (maximal 500 μL) was added into each vial. After 24 hr, the mussel water with cell lysis or proteins was changed with clean mussel water. Then, mussel water was changed every 24 hr with clean mussel water. Dead mussels were taken away every day and mussel mortality was calculated by number of dead mussel divided by the number of total mussels.

| Compound | Suppresses growth of CL145A ([1]; 10 μg disc) | CL145A resistant or sensitive to the antibiotic [1] | further results |
| --- | --- | --- | --- |
| CC1(C)S[C@@H]2[C@H](NC(=O)[C@H](N)c3ccccc3)C(=O)N2[C@H]1C(=O)O [Ampicillin] | No | resistant | – |
| CO/N=C(\C(=O)N[C@@H]1C(=O)N2C(C(=O)O)=C(COC(N)=O)CS[C@H]12)c1ccco1 [Cefuroxime] | – | resistant | Suppresses growth of CL145A ([1]; 30 μg disc): No |
| O=C(N[C@H](CO)[C@H](O)c1ccc([N+](=O)[O-])cc1)C(Cl)Cl [Chloramphenicol] | – | resistant | Suppresses growth of CL145A ([1]; 30 μg disc): No |
| CC[C@H]1OC(=O)[C@H](C)[C@@H](O[C@H]2C[C@@](C)(OC)[C@@H](O)[C@H](C)O2)[C@H](C)[C@@H](O[C@@H]2O[C@H](C)C[C@H](N(C)C)[C@H]2O)[C@](C)(O)C[C@@H](C)C(=O)[C@H](C)[C@@H](O)[C@]1(C)O [Erythromycin] | – | resistant | Suppresses growth of CL145A ([1]; 15 μg disc): No |
| CCN1CCN(C(=O)N[C@@H](C(=O)N[C@@H]2C(=O)N3[C@@H]2SC(C)(C)[C@@H]3C(=O)O)c2ccccc2)C(=O)C1=O [Piperacillin] | – | sensitive | Suppresses growth of CL145A ([1]; 100 μg disc): Yes |
| [H]/N=C(/N)N[C@H]1[C@H](O)[C@@H](O)[C@H](O[C@@H]2O[C@@H](C)[C@](O)(C=O)[C@H]2O[C@@H]2O[C@@H](CO)[C@H](O)[C@@H](O)[C@@H]2NC)[C@@H](N/C(N)=N\[H])[C@@H]1O [Streptomycin] | No | resistant | – |
| Gentamicin | Yes | sensitive | – |
| Penicillin | No | resistant | – |
| Sulphamethoxazole-Trimethoprim | – | sensitive | Suppresses growth of CL145A ([1]; 23.75/25 μg disc): Yes |
| fumarate hydratase Class II (or fumarase) [Protein B] | – | – | Mussel mortality at 7th day ([2]; 4 ppm, 7th day): 60%; Activity in mussel bioassay of proteins and fractions dosed after gel analysis ([2]; in vivo): active |

— patent US8728754B1, “Use of proteins isolated from Pseudomonas to control molluscs” (priority 2013, dated 2014)
